Laboratory results published in paper PMC7705112, “A Novel, Broad-Acting Peptide Inhibitor of Double-Stranded DNA Virus Gene Expression and Replication” (Frontiers in Microbiology, 2020).
Peptide text beside a SMILES is read from it.

How the values were obtained:
[1] = system: Baculovirus-Luc
[2] = system: firefly luciferase reporter gene under control of the CMV promoter, HEK293 cells; test: Luciferase expression from transfected CMV promoter plasmid (Superfect); assay type: cell-based; settings: HEK293, Figure 1D, TAT (47–57) alone
Protocol: Briefly, for one well of a 48-well plate, 100 ng DNA and 1 μl Superfect reagent were mixed by pipetting followed by addition of 12.5 μl of serum‐ and antibiotic-free medium. After brief vortexing and further incubation at room temperature for 15 min, 112.5 μl medium containing 10% fetal calf serum and antibiotics were added. For transfection in the presence of peptides, a transfection mixture of DNA, Superfect reagent, and serum-and antibiotic-free medium were prepared for the required number of wells. From this mixture, 25 μl aliquots were made and 0.5 μl peptides (10 mM each) added to each aliquot, vortexed briefly, and incubated for 15 min at room temperature. Then, 225 μl of medium containing 10% fetal calf serum was added and 125 μl applied per well of duplicate wells. For other types of multi-well plates, volumes were adapted according to the growth area of the wells.

[3] = system: HEK293 cells; test: Cell viability, CellTiter-Glo 2.0; assay type: cell-based; settings: 96 h incubation; Figure 2B, triplicate wells
Protocol: Vero, MRC-5, and CV-1 cells were cultured in Dulbecco’s Modified Eagle Medium (DMEM; ThermoFisher, Waltham, MA, United States) and Jurkat cells were cultured in RPMI 1640 medium containing 10% fetal calf serum, 100 U/ml penicillin, and 0.1 mg/ml streptomycin (ThermoFisher). HEK293 and NIH/3T3 cells were adapted to growth in CO2-independent medium supplemented with 10% fetal calf serum, 2 mM glutamine, and 1% antibiotic-antimycotic (ThermoFisher) and cultivated in a humidified atmosphere at 37°C. […] Viability was analyzed using CellTiter-Glo® 2.0 Assay according to the manufacturer’s protocol (Promega). […] Cytotoxicity was analyzed using MultiTox-Glo Multiplex Cytotoxicity Assay according to the manufacturer’s protocol (Promega).

[4] = system: HSV-1 F, HSV-1 703, HSV-1 601; assay type: cell-based, herpes simplex virus; settings: HSV-1 isolate 703; Figure S6A
[5] = system: Varicella zoster virus; test: VZV cytopathic effect; settings: human fibroblasts, pre-treated, infected 1 h, three days, microscopy

Compound: YGRKKRRQRRR [TAT (47–57), TAT peptide from Sigma, …]
- effect on luciferase levels ([1]; HEK293, 24 h, Figure 2A (TAT = TAT (47–57))): did not affect
- effect on reporter gene expression [2]: ineffective

Compound: CC(C)C[C@H](NC(=O)[C@@H](N)CS)C(=O)N[C@@H](C)C(=O)N[C@@H](Cc1ccccc1)C(=O)N[C@@H](Cc1ccc(O)cc1)C(=O)N[C@@H](C)C(=O)N[C@@H](CS)C(=O)N[C@@H](Cc1ccccc1)C(=O)N[C@@H](CS)C(=O)O [I24] (H-CLAFYACFC-OH)
- effects on HEK293 cell viability [3]: no effects

Compound: CC(C)C[C@H](NC(=O)[C@H](CS)NC(=O)[C@H](Cc1ccc(O)cc1)NC(=O)[C@@H]1CCCN1C(=O)[C@H](CC(=O)O)NC(=O)[C@H](CCC(=O)O)NC(=O)[C@@H](NC(=O)[C@H](CCCCN)NC(=O)[C@H](CCCNC(=N)N)NC(=O)[C@H](CCCCN)NC(=O)[C@H](CCCCN)NC(=O)[C@H](CCCCN)NC(=O)[C@@H]1CCCN1)C(C)C)C(=O)N[C@@H](C)C(=O)N[C@@H](Cc1ccccc1)C(=O)N[C@@H](Cc1ccc(O)cc1)C(=O)N[C@@H](C)C(=O)N[C@@H](CS)C(=O)N[C@@H](Cc1ccccc1)C(=O)N[C@@H](CS)C(=O)O [SV40 NLS-I24] (H-PKKKRKVEDPYCLAFYACFC-OH)
- EC50 ([1]; read-out: EC50, inhibition of reporter gene expression, HEK293, Figure 2E, triplicate wells): 1000 nM

Compound: YGRKKRRQRRRC [TAT-C]
- inhibition of luciferase expression ([1]; HEK293, at the highest tested concentration of 20 μM, Figure 2E): only partial inhibition

Compound: Nc1nc2c(ncn2COCCO)c(=O)[nH]1 [ACV, aciclovir]
- sensitivity of isolate to aciclovir [4]: resistance
- CPE [5]: 4 µM
